Laboratory results taken from publication PMC5450702 (Toxins, 2017).

Legend:
[1] = system: mice; assay: CFA-induced inflammation and thermal hyperalgesia; format: in vivo, CD-1 mice
Method: All experiments were approved by the Animal Care and Use Committee of the Branch of the IBCh RAS (Pushchino, Russia) protocol number No. 492/16. Adult male CD-1 mice (weight 20–30 g; obtained from the Animal Breeding Facility Branch of Shemyakin-Ovchinnikov Institute of Bioorganic Chemistry, Russian Academy of Sciences, Pushchino, Russia Federation) were housed at room temperature (23 ± 2 °C) and subjected to a 12 h light–dark cycle with food and water available ad libitum. […] The significance of the data was determined by Analysis of variance (ANOVA) followed by Turkey’s post-hoc test. Data are presented as mean ± SEM.
Paw inflammation and thermal hyperalgesia was induced using Complete Freund’s Adjuvant (CFA) suspended in an oil/saline (1:1) emulsion. The mice were injected with 20 µL of CFA emulsion into the plantar surface of the left hind-paw. The control mice were injected with 20 µL of saline. […] Paw withdrawal latency was recorded using a hot plate (53 °C) 30 min after peptide or saline administration. […] Percent inflammation was calculated according to the formula ((Postdose paw diameter − Naive paw diameter)/(Predose paw diameter − Naive paw diameter)) × 100.

[2] = system: TRPA1; settings: ref [53]; cited from earlier work
Source text: Most probably, this peptide can potentiate and defunctionalize the TRPA1 receptor on sensory neurons or desensitize neurons. […] In our study, defunctionalization of ...

[3] = system: myocardial voltage gated Na^+ channel; set-up: method as in PMID 1686683; settings: ref [41]; cited from earlier work
[4] = ref [45], cited from earlier work
Method: The capability of defensins to interact with microbial membranes is determined by the shape of the molecules, the ratio of polar to hydrophobic residues on the peptide surface, and the total positive charge given through basic amino acids rather than by their individual primary structures. Usually, increasing the overall positive charge will increase the antimicrobial activity of AMPs due to the selective action of AMPs on negatively charged bacterial membranes. Indeed, the AMP cryptidin-4 (Crp4, charge +8) more effectively associates with negatively charged biological membranes than ne ...

[5] = system: sodium channels; settings: ref [11]; cited from earlier work
[6] = ref [11]; cited from earlier work

Compound: CCC(=N\O)/C(C)=C/c1ccc(F)cc1 [A-967079]
- effect of TRPA1 antagonist on Ueq 12-1 action, CFA-induced inflammation ([1]; A-967079 20 mg/kg p.o. 1 h before Ueq 12-1 0.2 mg/kg i.v.): completely blocked the effect of peptide Ueq 12-1
- effect of TRPA1 antagonist on Ueq 12-1 action, thermal hyperalgesia ([1]; A-967079 20 mg/kg p.o., Ueq 12-1 0.2 mg/kg i.v., n = 7–8): completely blocked the effect of peptide Ueq 12-1

Compound: C=C1C(=O)O[C@H]2[C@H]1CC/C(C)=C/CC[C@@]1(C)O[C@@H]21 [parthenolide]
- TRPA1 activity [2]: partial agonist of TRPA1

Compound: Anthopleurin-A: 49-residue polypeptide from Anthopleura xanthogrammica
- effect on myocardial voltage gated Na^+ channel [3]: delayed inactivation

Compound: cryptidin-4 (Crp4: mouse alpha-defensin 4 antimicrobial peptide (LRGLLCYCRKGHCKRGERVRGTCGIRFLYCCPRR; UniProt P28311 59-92, looked up)
- charge [4]: +8
- association with membranes ([4]; versus neutral membranes): more effectively associates with negatively charged biological membranes than neutral membranes

Compound: neurotoxin 2 (ATX-II)
- effect on sodium channels gating [5]: affect sodium channels gating
- antimicrobial properties [6]: have antimicrobial properties
